Assay results reported in ChEMBL document CHEMBL1201862, “PubChem BioAssay data set” (2004).
Active and inactive are the calls of the source.

How the values were obtained:
[1] = viability of PTEN-deleted HCT116 cells – cell-based, HCT116 PTEN knockout, dose response (AID 1047); type: functional;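 also: HCT116 colon tumor cells with PTEN knocked out; cells exposed to compound for 60 hours before readout; potency for loss of cell viability measured by luminescence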
[2] = target: Sphingosine 1-phosphate receptor 2 (Homo sapiens, UniProt O95136); assay: Dose Response Cell Based Assay for Agonists of the S1P2 Receptor. [Related pubchem assays: 729, 736, 843 ]; type: functional
[3] = viability of HCT116 lacking mutant beta-catenin – cell-based, human colon tumor, dose response (AID 1045); type: functional;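 also: HCT116 colon tumor cells with beta catenin knocked out; cells exposed to compound for 60 hours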
[4] = target: T1, Protein RecA (Mycobacterium tuberculosis, UniProt P9WHJ3); assay: Fluorescence Cell-Free Homogeneous Dose Retest to Identify Inhibitors of RecA-Intein Splicing Activity. [Related pubchem assays (depositor defined):AID2097, AID2223, AID489010, AID492950]; type: functional
T1 sequence (P9WHJ3 whole entry): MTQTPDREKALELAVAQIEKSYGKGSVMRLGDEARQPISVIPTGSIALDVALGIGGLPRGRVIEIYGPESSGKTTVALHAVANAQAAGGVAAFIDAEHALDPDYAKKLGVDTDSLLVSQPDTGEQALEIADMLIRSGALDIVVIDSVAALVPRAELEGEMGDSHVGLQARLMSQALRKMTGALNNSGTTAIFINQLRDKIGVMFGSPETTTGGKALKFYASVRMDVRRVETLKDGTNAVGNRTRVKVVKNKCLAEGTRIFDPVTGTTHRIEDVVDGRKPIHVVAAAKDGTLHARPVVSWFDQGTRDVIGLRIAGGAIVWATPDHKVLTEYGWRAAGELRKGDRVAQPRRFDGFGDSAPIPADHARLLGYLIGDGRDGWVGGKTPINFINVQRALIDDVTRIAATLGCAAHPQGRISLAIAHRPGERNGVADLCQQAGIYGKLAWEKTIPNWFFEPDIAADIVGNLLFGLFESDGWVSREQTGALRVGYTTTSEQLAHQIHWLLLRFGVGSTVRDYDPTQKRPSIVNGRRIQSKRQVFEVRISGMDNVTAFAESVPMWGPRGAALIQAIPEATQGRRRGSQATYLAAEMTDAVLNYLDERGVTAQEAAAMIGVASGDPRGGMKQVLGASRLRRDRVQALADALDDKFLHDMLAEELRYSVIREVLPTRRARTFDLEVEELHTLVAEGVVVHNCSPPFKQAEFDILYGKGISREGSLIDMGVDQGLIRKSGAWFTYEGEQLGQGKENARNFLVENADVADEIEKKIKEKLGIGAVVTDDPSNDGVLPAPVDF

[5] = M. tuberculosis H37Rv growth inhibitors, H37Rv strain (AID 1626); type: functional
[6] = target: T2, RNA-binding protein pos-1 (Caenorhabditis elegans, UniProt G5EF15); assay: disruptors of C. elegans POS-1 RNA interaction – biochemical, fluorescence polarization, dose response (AID 1964);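 also: purified POS-1 fused to maltose binding protein made in E. coli; potency of compounds blocking POS-1 binding to fluorescent RNA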
T2 sequence (G5EF15 whole entry): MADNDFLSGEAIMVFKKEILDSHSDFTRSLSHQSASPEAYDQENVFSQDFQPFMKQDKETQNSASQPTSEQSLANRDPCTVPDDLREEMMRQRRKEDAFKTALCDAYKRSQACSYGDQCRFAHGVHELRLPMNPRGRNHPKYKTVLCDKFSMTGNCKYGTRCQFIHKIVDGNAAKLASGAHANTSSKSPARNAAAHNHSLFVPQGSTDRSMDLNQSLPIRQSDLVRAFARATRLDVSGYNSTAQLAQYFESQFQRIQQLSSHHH

[7] = target: T3, Zinc finger protein mex-5 (Caenorhabditis elegans, UniProt Q9XUB2); assay: potency of MEX-5 RNA-binding blockers – biochemical, C. elegans, fluorescence polarization, dose response (AID 1960)
T3 sequence (Q9XUB2 whole entry): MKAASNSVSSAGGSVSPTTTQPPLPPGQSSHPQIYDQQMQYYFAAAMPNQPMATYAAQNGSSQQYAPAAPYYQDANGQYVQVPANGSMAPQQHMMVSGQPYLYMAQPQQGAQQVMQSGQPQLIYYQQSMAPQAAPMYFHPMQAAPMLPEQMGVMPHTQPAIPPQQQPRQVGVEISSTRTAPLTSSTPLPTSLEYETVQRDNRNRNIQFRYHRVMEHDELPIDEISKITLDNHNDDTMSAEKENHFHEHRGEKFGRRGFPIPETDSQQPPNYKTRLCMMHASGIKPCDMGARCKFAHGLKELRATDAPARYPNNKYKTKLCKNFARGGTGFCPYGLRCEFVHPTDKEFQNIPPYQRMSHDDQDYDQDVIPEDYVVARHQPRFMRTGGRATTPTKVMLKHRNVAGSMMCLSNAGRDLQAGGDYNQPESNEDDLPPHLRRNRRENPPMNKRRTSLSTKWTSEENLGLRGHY

[8] = antiviral protection against BTV-induced cell death – arbovirus, BSR cells, confirmation (AID 1250); type: functional;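 also: protection from viral cytopathic effect measured as cell viability by ATP luminescence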
[9] = target: FAD-linked sulfhydryl oxidase ALR (Homo sapiens, UniProt P55789); assay: ALR-catalysed DTT oxidation blockers – biochemical, H2O2 detection, luminescence, cherry-pick, dose response (AID 493248)
[10] = target: T4, Estrogen receptor (Homo sapiens, UniProt P03372);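 also: potency for inhibiting coactivator peptide recruitment to the receptor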
T4 sequence (P03372 whole entry): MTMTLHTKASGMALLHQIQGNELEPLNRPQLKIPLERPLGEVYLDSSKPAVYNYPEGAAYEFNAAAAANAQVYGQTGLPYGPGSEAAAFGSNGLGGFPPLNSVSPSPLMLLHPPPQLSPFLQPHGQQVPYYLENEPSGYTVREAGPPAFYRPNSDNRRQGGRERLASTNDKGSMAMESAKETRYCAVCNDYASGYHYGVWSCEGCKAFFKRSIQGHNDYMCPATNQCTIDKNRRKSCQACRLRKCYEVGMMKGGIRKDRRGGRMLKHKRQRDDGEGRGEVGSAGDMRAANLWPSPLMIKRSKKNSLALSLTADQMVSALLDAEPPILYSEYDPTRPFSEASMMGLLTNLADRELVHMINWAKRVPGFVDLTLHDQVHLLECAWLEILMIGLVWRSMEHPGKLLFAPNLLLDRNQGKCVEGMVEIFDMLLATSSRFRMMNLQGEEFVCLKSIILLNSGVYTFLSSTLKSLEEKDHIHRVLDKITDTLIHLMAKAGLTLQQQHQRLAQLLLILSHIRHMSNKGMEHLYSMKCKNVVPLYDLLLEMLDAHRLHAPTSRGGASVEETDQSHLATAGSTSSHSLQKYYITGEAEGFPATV

[11] = target: T5, Heat shock factor protein 1 (Mus musculus, UniProt P38532); assay: enhancement of HSF1-driven luciferase signal – cell-based, NIH3T3, luminescence, dose retest, confirmation (AID 435004); type: functional;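 also: stress induced by proteasome inhibitor MG132 added 30 min after compound; luciferase reporter driven by HSF1 response element in NIH3T3 cells; actives raise luminescence as potentiators of the MG132 stress response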
T5 sequence (P38532 whole entry): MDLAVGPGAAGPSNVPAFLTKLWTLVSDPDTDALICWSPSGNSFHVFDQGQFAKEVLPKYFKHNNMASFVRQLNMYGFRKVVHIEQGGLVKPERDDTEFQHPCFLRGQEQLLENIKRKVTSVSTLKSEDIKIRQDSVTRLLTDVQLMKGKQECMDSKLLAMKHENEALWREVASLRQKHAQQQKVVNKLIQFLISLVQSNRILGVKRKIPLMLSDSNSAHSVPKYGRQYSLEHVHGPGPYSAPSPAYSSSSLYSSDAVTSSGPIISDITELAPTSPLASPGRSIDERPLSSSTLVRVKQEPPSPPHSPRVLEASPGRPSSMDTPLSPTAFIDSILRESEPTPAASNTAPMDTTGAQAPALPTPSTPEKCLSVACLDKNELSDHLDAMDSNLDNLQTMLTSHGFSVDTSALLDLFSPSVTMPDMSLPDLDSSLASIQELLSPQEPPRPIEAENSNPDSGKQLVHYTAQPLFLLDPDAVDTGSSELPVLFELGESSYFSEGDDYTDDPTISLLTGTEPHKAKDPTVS

[12] = Trypanosoma cruzi growth suppression in host cells – NIH3T3 host cells, beta-gal luminescence, confirmation (AID 2044); type: functional, cell-based;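 also: intracellular parasites grown in NIH/3T3 mouse fibroblasts as host cells; luminescent beta-galactosidase reporter signal from transgenic T. cruzi replicating inside host cells; inhibitors lower the luminescence signal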
[13] = system: Jurkat; assay: blockers of NF-kB activation in T cells – Jurkat, luciferase reporter, luminescence, B- and T-cell, dose response (AID 489004); type: functional, cell-based; conditions: Homo sapiens;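 also: NF-kB luciferase reporter Jurkat cells stimulated with PMA plus ionomycin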
[14] = fluconazole-exposed Candida albicans growth modulators – fluorescence, retest, confirmation (AID 2467); type: functional, cell-based
[15] = NIH3T3 cell viability loss – ATP luminescence, mouse fibroblasts, counter-screen, dose response (AID 2010); type: functional, cell-based;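 also: cells exposed to compound for about 90 hours before reading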
[16] = NIH-3T3 fibroblast cytotoxicity, dose response, cytotoxicity control, cell-based, fluorescence, Alamar Blue, secondary assay (AID 2327); type: functional;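 also: NIH-3T3 mouse fibroblasts cultured with fluconazole at 8 µg/mL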
[17] = target: T6, COUP transcription factor 2 (Homo sapiens, UniProt P24468); assay: Luminescence-based cell-based high throughput dose response assay to identify inhibitors of COUP-TFII (NR2F2).; type: functional;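 also: HEK293 cells transiently cotransfected with COUP-TFII expression vector and reporter; luciferase reporter luminescence driven by COUP-TFII from the pX2-168 reporter plasmid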
T6 sequence (P24468 whole entry): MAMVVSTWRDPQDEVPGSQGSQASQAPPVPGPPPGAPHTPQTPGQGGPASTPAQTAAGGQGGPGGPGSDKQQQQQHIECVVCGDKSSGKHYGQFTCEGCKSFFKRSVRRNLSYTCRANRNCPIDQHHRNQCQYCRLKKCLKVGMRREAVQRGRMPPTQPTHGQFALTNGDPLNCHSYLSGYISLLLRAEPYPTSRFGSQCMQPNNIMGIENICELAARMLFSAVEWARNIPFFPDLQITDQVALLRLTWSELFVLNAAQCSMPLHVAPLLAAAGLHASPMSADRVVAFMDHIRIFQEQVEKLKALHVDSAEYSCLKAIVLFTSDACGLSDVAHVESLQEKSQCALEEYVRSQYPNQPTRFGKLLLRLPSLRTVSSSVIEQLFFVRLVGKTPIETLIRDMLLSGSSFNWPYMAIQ

[18] = HEK-293T viability loss, compound-treated – cell-based, uHTS hits, cytotoxicity control for B/T-cell NF-kB inhibitor project, dose response (AID 489019); type: functional;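 also: IC50 reflects cytotoxicity as loss of cell viability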
[19] = system: INS1; assay: INS-1E survival protection against cytokine death – cell-based, luminescence, retest, dose response (AID 449756); type: functional; conditions: Rattus norvegicus;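 also: cell death triggered by IL-1 beta plus TNF-alpha plus IFN-gamma mixture; protective hits raise ATP signal compared with cytokine alone wells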
[20] = target: T7, Microphthalmia-associated transcription factor (Homo sapiens, UniProt O75030); assay: reducers of TRPM1 reporter luminescence, concentration series – cell-based, SK-MEL-5, cherry-picked, set 3, MITF inhibitor project, dose response (AID 493073); type: functional;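 also: SK-MEL-5 melanoma cells with luciferase driven by the MITF target TRPM1 promoter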
T7 sequence (O75030 whole entry): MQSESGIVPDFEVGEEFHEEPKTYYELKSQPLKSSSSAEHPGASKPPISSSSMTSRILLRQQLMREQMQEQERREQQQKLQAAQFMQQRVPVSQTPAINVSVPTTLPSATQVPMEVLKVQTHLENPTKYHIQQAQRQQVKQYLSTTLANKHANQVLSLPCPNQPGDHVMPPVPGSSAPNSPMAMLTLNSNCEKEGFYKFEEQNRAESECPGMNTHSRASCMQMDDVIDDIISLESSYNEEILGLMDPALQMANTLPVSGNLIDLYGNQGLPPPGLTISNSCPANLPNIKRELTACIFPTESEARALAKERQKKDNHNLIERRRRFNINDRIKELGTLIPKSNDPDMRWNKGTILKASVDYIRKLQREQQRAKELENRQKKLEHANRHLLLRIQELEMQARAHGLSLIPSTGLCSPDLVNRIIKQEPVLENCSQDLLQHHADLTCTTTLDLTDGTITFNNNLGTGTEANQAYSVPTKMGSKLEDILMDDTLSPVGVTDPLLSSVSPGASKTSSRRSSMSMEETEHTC

[21] = target: Luciferin 4-monooxygenase (Photinus pyralis, UniProt P08659); assay: inhibition of purified Photinus pyralis luciferase – biochemical, luminescence, dose response (AID 1891)
[22] = Luminescence Cell-Based Dose Confirmation HTS to Identify Inhibitors of Platelet Dense Granule Release. [Related pubchem assays: 1663 (Primary HTS), 1678 (Summary of Project)]; type: functional

Chain of Sphingosine 1-phosphate receptor 2 (O95136 whole entry): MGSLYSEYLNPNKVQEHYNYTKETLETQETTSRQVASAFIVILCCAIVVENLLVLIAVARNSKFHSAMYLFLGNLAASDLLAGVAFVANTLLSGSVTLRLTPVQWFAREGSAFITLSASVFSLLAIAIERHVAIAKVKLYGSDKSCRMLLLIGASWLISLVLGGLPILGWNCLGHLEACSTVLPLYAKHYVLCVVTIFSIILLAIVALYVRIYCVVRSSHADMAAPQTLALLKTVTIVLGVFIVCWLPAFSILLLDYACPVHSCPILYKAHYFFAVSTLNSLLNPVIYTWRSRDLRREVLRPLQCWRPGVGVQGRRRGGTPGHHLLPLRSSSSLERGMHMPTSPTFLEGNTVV
Chain of FAD-linked sulfhydryl oxidase ALR (P55789 whole entry): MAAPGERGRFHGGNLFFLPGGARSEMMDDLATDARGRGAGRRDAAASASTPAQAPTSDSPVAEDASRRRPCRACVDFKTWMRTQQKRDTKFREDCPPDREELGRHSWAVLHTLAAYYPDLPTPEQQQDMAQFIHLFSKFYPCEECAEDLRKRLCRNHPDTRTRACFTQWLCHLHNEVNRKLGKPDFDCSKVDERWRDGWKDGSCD
Chain of Luciferin 4-monooxygenase (P08659 whole entry): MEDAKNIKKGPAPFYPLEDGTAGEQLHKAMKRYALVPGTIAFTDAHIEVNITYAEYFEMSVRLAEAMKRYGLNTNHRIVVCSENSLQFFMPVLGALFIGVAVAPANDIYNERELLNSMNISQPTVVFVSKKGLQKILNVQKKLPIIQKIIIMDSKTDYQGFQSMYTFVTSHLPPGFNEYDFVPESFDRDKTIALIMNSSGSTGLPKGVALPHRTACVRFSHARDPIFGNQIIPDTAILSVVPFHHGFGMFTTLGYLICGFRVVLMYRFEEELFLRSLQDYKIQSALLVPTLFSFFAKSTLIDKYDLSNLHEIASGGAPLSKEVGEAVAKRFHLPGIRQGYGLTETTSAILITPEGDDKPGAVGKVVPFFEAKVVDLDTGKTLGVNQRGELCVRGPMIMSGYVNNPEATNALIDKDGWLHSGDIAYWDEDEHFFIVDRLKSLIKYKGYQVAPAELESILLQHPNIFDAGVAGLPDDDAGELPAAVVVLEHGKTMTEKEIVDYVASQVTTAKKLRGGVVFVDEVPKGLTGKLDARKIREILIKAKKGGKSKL

CCC(C)NC(=O)c1c(N)n(Cc2ccc3c(c2)OCO3)c2nc3ccccc3nc12 (stereo unspecified)
EC50 [1]: 15.3 µM (active) | EC50 [2]: 2.41 µM (active) | EC50 [3]: 14.2 µM (active) | EC50 [4]: > 380 µM (inconclusive)

CCOC(=O)/C=C/C(=O)Nc1nccs1
IC50 [5]: > 100 µM (active)

CC(C)CC1=NN2C(=N)/C(=C/c3c[nH]c4ccccc34)C(=O)N=C2S1
EC50 [6]: 34.2 µM (inconclusive) | EC50 [7]: 47.4 µM (active) | IC50 [8]: 32.1 µM (active)

Cc1cccc(C(=O)Nc2scc(CC(C)C)c2C(=O)O)c1
AC50 [9]: 0.016 µM (active) | IC50 [8]: 32.3 µM (active)

COc1cc(-c2cc(C(=O)Nc3nc4ccccc4s3)c3ccccc3n2)cc(OC)c1OC
IC50 [5]: > 100 µM (active)

CC(=O)c1c(C)n(C)c2ccc(O)cc12
IC50 [5]: > 100 µM (active)

COc1ccc(/C=C/C(O)=C2/C(=O)N(C)C3(C)CC2c2ccccc2O3)cc1 (stereo unspecified)
IC50 [10]: > 50 µM (not active) | EC50 [1]: 10.7 µM (active) | EC50 [3]: 8.06 µM (active) | EC50 [11]: > 260 µM (inactive)

COc1ccc2cc(S(=O)(=O)NCCCN3CCOCC3)ccc2c1
EC50 [2]: > 50 µM (not active)

CN(C)c1cc[n+](CC(=O)c2ccc(-c3ccccc3)cc2)cc1
EC50 [12]: 0.515 µM (active) | IC50 [13]: 4.41 µM (active) | EC50 [14]: 2 µM (active) | EC50 [15]: > 60 µM (not active) | EC50 [16]: > 160 µM (inactive) | IC50 [17]: 10.2 µM (inactive) | IC50 [18]: > 80 µM (inactive) | AC50 [19]: 1.55 µM (active) | AC50 [20]: 2.6 µM (active)

COC(=O)c1ccc2c(=O)n(CC3CCCO3)c(SCC(=O)Nc3ccccc3Cl)nc2c1 (stereo unspecified)
IC50 [10]: 20.9 µM (active)

COC(=O)c1oc2ccc(Br)cc2c1NC(=O)CCCN1C(=O)c2ccccc2C1=O
IC50 [10]: 42.3 µM (not active)

O=C1CCCC(=O)C1=CNCCc1ccccc1
EC50 [21]: > 112 µM (not active) | EC50 [22]: > 112 µM (not active) | EC50 [2]: > 50 µM (not active)
